The text below walks through data of patent US8486594B2, “P-terphenyl compound mixture and electrophotographic photoreceptors made by using the same” (Hodogaya Chemical Co., Ltd., priority 2006, dated 2013).

The structures appear in SMILES notation.

The nature of data set [1]: Solubility in organic solvent (tetrahydrofuran). It counts as physicochemical. Conditions: 25° C. tetrahydrofuran; % (weight/volume). The text has this:
[Solubility in Organic Solvent]
The unit of solubility is % (weight/volume).

Data set [2] can be described thus: Dissolution of charge-transporting agent in tetrahydrofuran solution of polycarbonate resin for charge-transporting layer. It counts as physicochemical. To be noted: 12.2% tetrahydrofuran solution of polycarbonate resin (Yupilon Z), ultrasonic wave. On the procedure: The p-terphenyl compound mixture was completely dissolved by propagating an ultrasonic wave thereto. This solution was applied to the charge-generating layer with a wire-wound bar and dried at 110° C. and ordinary pressure for […] to form a charge-transporting layer having a thickness of 20 μm. Thus, Photoreceptor No. 1 was produced.
Photoreceptor No. 6 was produced in the same manner as in Photoreceptor Example 1, except that the p-terphenyl compound singly synthesized as Compound No. 6 was used in place of the charge-transporting agent used in Photoreceptor Example 1.
Photoreceptor No. 7 was produced in the same manner as in Photoreceptor Example 1, except that the p-terphenyl compound singly synthesized as Compound No. 9 was used in place of the charge-transporting agent used in Photoreceptor Example 1.
The p-terphenyl compound mixture was completely dissolved by propagating an ultrasonic wave thereto. This solution was applied to the charge-generating layer with a wire-wound bar and dried at 110° C. and ordinary pressure for 30 minutes to form a charge-transporting layer having a thickness of 10 μm. Furthermore, a semitransparent metal electrode was formed on the charge-transporting layer by vapor deposition to produce Photoreceptor No. 8. […]

Turning to `Cc1ccc(N(c2ccccc2)c2ccc(-c3ccc(-c4ccc(N(c5ccccc5)c5ccc(C)cc5)cc4)cc3)cc2)cc1` [Compound No. 1, 4,4′-bis(4-methyldiphenylamino)-p-terphenyl], the Solubility in tetrahydrofuran in data set [1] stood at 25.0%. `Cc1ccc(N(c2ccccc2)c2ccc(-c3ccc(-c4ccc(N(c5ccccc5)c5ccc(C)cc5C)cc4)cc3)cc2)c(C)c1` [Compound No. 4, 4,4′-bis(2,4-dimethyldiphenylamino)-p-terphenyl]: in data set [1], the Solubility in tetrahydrofuran was found to be 10.0%. `Cc1ccc(N(c2ccc(C)cc2)c2ccc(-c3ccc(-c4ccc(N(c5ccc(C)cc5)c5ccc(C)cc5)cc4)cc3)cc2)cc1` [Compound No. 6, 4,4′-bis(4,4′-dimethyldiphenylamino)-p-terphenyl]: the Solubility in tetrahydrofuran in data set [1] was 2.0%. Further, in data set [2], the “dissolution of charge-transporting agent in coating solution” value is reported as “did not dissolve”. Molecule `c1ccc(N(c2ccccc2)c2ccc(-c3ccc(-c4ccc(N(c5ccccc5)c5ccccc5)cc4)cc3)cc2)cc1` [Compound No. 9, 4,4′-bis(diphenylamino)-p-terphenyl] came in with a Solubility in tetrahydrofuran in data set [1] of 2.0%. In addition, the “dissolution of charge-transporting agent in coating solution” value in data set [2] is on record as “did not dissolve”.
